How the values were obtained:
Tie2 [1] = biological target: T1, Tie2 (Homo sapiens, UniProt Q02763); assay: Tie2 ELISA assay (assay 1): Ang2-stimulated Tie2 autophosphorylation in transfected CHO cells; type: cell-based; parameters: expressed in transfected cells; host or cells: CHO (DHFR selection); settings: CHO Tie2/DHFR cells stimulated by angiopoietin-2, pIC50 = -log IC50 in molar concentration, read-out: Tie 2 activity (assay 1)
Procedure: Cellular activity of compounds of the present invention as inhibitors of Tie2 kinase activity was measured employing a Tie2 ELISA assay as described in the following paragraphs. Herein CHO cell-cultures, which are stably transfected by known techniques with Tie2 using DHFR deficiency as selection marker, are stimulated by angiopoietin-2. The specific autophosphorylation of Tie2 receptors is quantified with a sandwich-ELISA using anti-Tie2 antibodies for catch and anti-phosphotyrosine antibodies coupled to HRP for detection.
• 96 well tissue culture plate, sterile, Greiner • 96 well FluoroNunc plate MaxiSorp Surface C, Nunc • 96 well plate polypropylene for compound dilution in DMSO • CHO Tie2/DHFR (transfected cells) • PBS−; PBS++, DMSO • MEM alpha Medium with Glutamax-I without Ribonucleosides and Deoxyribonucleosides (Gibco #32561-029) with 10% FCS after dialysis! and 1% PenStrep • Lysis buffer: 1 Tablet “Complete” protease inhibitor • 1 cap Vanadate (1 mL>40 mg/mL; working solution 2 mM) • ad 50 mL with Duschl-Puffer • pH 7.6 • Anti-Tie2-antibody 1:425 in Coating Buffer pH 9.6 • Stock solution: 1.275 mg/mL>working: 3 μg/mL • PBST: 2 bottles PBS (10×)+10 ml Tween, fill up with VE-water • RotiBlock 1:10 in VE-water • Anti-Phosphotyrosine HRP-Conjugated 1:10000 in 3% TopBlock • 3% TopBlock in PBST • BM Chemiluminescence ELISA Substrate (POD) • solution B 1:100 solution A • SF9 cell culture medium • Ang2-Fc in SF9 cell culture medium Cell Experiment: • Dispense 5×10^4 cells/well/98 μL in 96 well tissue culture plate • Incubate at 37° C./5% CO2 • After 24 h add compounds according to desired concentrations • Add also to control and stimulated values without compounds 2 μL DMSO • And mix for a few min at room temperature • Add 100 μL Ang2-Fc to all wells except control, which receives insect medium • Incubate 20 min at 37° C. • Wash 3× with PBS++ • Add 100 μl Lysis buffer/well and shake a couple of min at room temperature • Store lysates at […] before utilizing for the ELISA Performance of Sandwich-ELISA • Coat 96 well FluoroNunc Plate MaxiSorp Surface C with anti-Tie2 mAb • 1:425 in Coating buffer pH 9.6; 100 μL/well overnight at 4° C. • Wash 2× with PBST • Block plates with 250 μL/well RotiBlock 1:10 in VE-water • Incubate for 2 h at room temperature or overnight at 4° C. shaking • Wash 2× in PBST • Add thawed lysates to wells and incubate overnight shaking at 4° C. • Wash 2× with PBST • Add 100 μL/well anti-Phosphotyrosine HRP-Conjugated 1:10000 in 3% • TopBlock (3% TopBlock in PBST) and incubate overnight under shaking • Wash 6× with PBST • Add 100 μL/well BM Chemiluminescence ELISA Substrate (POD) • solutions 1 und 2 (1:100) • Determine luminescence with the LumiCount. Assay 2: Tie-2-Kinase HTRF-Assay Without Kinase Preactivation
Target sequence in this assay (Q02763 23-1124, species assumed): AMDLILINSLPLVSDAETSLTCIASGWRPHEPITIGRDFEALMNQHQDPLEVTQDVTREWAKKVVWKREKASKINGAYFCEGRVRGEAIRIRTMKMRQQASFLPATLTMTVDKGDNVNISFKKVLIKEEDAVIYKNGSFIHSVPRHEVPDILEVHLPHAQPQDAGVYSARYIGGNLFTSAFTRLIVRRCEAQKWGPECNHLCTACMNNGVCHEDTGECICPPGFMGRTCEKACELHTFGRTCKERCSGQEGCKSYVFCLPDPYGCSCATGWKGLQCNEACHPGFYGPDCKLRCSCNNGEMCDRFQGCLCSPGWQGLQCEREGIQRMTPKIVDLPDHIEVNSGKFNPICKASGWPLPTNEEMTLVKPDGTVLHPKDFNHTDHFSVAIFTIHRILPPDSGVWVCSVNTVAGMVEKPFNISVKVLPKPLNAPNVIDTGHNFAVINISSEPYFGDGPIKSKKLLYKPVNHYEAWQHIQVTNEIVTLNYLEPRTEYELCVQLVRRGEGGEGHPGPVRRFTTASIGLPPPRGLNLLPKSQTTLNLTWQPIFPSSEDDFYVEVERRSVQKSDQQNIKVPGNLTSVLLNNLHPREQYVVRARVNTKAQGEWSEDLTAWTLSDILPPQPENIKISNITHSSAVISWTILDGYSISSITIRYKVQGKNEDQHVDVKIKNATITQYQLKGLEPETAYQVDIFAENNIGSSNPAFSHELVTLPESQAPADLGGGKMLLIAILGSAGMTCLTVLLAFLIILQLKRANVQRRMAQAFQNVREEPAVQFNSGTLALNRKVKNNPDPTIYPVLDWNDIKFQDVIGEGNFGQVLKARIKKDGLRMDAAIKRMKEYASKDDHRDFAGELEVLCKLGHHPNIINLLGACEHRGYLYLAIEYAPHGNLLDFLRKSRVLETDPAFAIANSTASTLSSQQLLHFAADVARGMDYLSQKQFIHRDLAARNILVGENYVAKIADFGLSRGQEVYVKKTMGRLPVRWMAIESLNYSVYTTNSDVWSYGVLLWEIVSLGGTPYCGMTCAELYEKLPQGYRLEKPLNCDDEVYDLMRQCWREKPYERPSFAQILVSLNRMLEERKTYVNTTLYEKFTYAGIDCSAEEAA

Tie2 [2] = biological target: T1, Tie2; assay: Tie-2-Kinase HTRF-Assay without kinase preactivation (assay 2); type: biochemical; parameters: fusion protein of GST and the intracellular domains of Tie-2; GST; made in house; host or cells: insect cells (Hi-5); settings: 10 μM ATP, pIC50 = -log IC50 in molar concentration
Description: Tie2-inhibitory activity of compounds of the present invention was quantified employing two Tie2 HTRF assay as described in the following paragraphs.
A recombinant fusion protein of GST and the intracellular domains of Tie-2, expressed in insect cells (Hi-5) and purified by Glutathion-Sepharose affinity chromatography was used as kinase. Alternatively, commercially available GST-Tie2-fusion protein (Upstate Biotechnology, Dundee, Scotland) can be used As substrate for the kinase reaction the biotinylated peptide biotin-Ahx-EPKDDAYPLYSDFG (C-terminus in amid form) was used which can be purchased e.g. from the company Biosynthan GmbH (Berlin-Buch, Germany). Detection of phosphorylated product is achieved specifically by a trimeric detection complex consisting of the phosphorylated substrate, streptavidin-XLent (SA-XLent) which binds to biotin, and Europium Cryptate-labeled anti-phosphotyrosine antibody PT66 which binds to phosphorylated tyrosine.
Tie-2 (3.5 ng/measurement point) was incubated for 60 min at 22° C. in the presence of 10 μM adenosine-tri-phosphate (ATP) and 1 μM substrate peptide (biotin-Ahx-EPKDDAYPLYSDFG-NH2) with different concentrations of test compounds (0 μM and concentrations in the range 0.001-20 μM) in 5 μl assay buffer [50 mM Hepes/NaOH pH 7, 10 mM MgCl2, 0.5 mM MnCl2, 1.0 mM dithiothreitol, 0.01% NP40, protease inhibitor mixture (“Complete w/o EDTA” from Roche, 1 tablet per 2.5 ml), 1% (v/v) dimethylsulfoxide]. The reaction was stopped by the addition of 5 μl of an aqueous buffer (25 mM Hepes/NaOH pH 7.5, 0.28% (w/v) bovine serum albumin) containing EDTA (90 mM) and the HTRF (Homogeneous Time Resolved Fluorescence) detection reagents streptavidine-XLent (0.2 μM, from Cis Biointernational, Marcoule, France) and PT66-Eu-Chelate (0.3 ng/μl; a europium-chelate labelled anti-phospho-tyrosine antibody from Perkin Elmer).
The resulting mixture was incubated 1 h at 22° C. to allow the binding of the biotinylated phosphorylated peptide to the streptavidine-XLent and the PT66-Eu-Chelate. Subsequently the amount of phosphorylated substrate peptide was evaluated by measurement of the resonance energy transfer from the PT66-Eu-Chelate to the streptavidine-XLent. Therefore, the fluorescence emissions at 620 nm and 665 nm after excitation at 350 nm was measured in a HTRF reader, e.g. a Rubystar (BMG Labtechnologies, Offenburg, Germany) or a Viewlux (Perkin-Elmer). The ratio of the emissions at 665 nm and at […] was taken as the measure for the amount of phosphorylated substrate peptide. The data were normalised (enzyme reaction without inhibitor=0% inhibition, all other assay components but no enzyme=100% inhibition) and IC50 values were calculated by a 4 parameter fit using an inhouse software.
Target sequence in this assay (Q02763 770-1124 limits assumed, species assumed): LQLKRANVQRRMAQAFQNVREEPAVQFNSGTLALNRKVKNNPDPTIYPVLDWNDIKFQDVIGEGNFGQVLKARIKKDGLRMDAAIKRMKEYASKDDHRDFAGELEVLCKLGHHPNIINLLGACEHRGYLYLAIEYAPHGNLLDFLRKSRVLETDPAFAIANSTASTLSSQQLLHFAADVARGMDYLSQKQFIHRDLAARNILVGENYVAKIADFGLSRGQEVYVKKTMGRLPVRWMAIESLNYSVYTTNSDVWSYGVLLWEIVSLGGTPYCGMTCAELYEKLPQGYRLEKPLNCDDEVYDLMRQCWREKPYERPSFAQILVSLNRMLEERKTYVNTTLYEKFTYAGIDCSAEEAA

Cc1ccc(C2(C(=O)Nc3ccc(-c4cnc5nc4NCCCNS(=O)(=O)c4cccc(c4)N5)cc3)CC2)cc1 [Example 1, 1-p-Tolyl-cyclopropane-carboxylic acid [4-(13,13-dioxo-13λ^6-thia-2,4,8,12,19-pentaaza-tricyclo[12.3.1.1^3,7]nonadeca-1(18),3(19),4,6, 14,16-hexaen-6-yl)-phenyl]-amide]
IC50 (Tie2 [1]): < 100 nM
IC50 (Tie2 [2]): < 100 nM

Cc1ccccc1C1(C(=O)Nc2ccc(-c3cnc4nc3NCCCNS(=O)(=O)c3cccc(c3)N4)cc2)CC1 [Example 2, 1-o-Tolyl-cyclopropane-arboxylic acid [4-(13,13-dioxo-13λ^6-thia-2,4,8,12,19-pentaaza-tricyclo[12.3.1.1^3,7]nonadeca-1(18),3(19),4,6,14,16-hexaen-6-yl)-phenyl]-amide]
IC50 (Tie2 [1]): < 100 nM
IC50 (Tie2 [2]): < 100 nM

COc1cccc(C2(C(=O)Nc3ccc(-c4cnc5nc4NCCCNS(=O)(=O)c4cccc(c4)N5)cc3)CC2)c1 [Example 3, 1-(3-Methoxy-phenyl)-cyclopropane-carboxylic acid [4-(13,13-dioxo-13λ^6-thia-2,4,8,12,19-pentaaza-tricyclo[12.3.1.1^3,7]nonadeca-1(18),3(19),4,6,14,16-hexaen-6-yl)-phenyl]-amide]
IC50 (Tie2 [1]): < 100 nM
IC50 (Tie2 [2]): < 100 nM

COc1ccc(C2(C(=O)Nc3ccc(-c4cnc5nc4NCCCNS(=O)(=O)c4cccc(c4)N5)cc3)CC2)cc1 [Example 4, 1-(4-Methoxy-phenyl)-cyclopropane-carboxylic acid [4-(13,13-dioxo-13λ^6-thia-2,4,8,12,19-pentaaza-tricyclo[12.3.1.1^3,7]-nonadeca-1(18),3(19),4,6,14,16-hexaen-6-yl)-phenyl]-amide]
IC50 (Tie2 [1]): < 100 nM
IC50 (Tie2 [2]): < 100 nM

O=C(Nc1ccc(-c2cnc3nc2NCCCNS(=O)(=O)c2cccc(c2)N3)cc1)C1(c2cccc(Cl)c2)CC1 [Example 5, 1-(3-Chloro-phenyl)-cyclopropane-arboxylic acid [4-(13,13-dioxo-13λ^6-thia-2,4,8,12,19-pentaaza-tricyclo[12.3.1.1^3,7]-nadeca-1(18),3(19),4,6,14,16-hexaen-6-yl)-phenyl]-amide]
IC50 (Tie2 [1]): < 100 nM
IC50 (Tie2 [2]): < 100 nM

O=C(Nc1ccc(-c2cnc3nc2NCCCNS(=O)(=O)c2cccc(c2)N3)cc1)C1(c2ccc(Cl)cc2)CC1 [Example 6, 1-(4-Chloro-phenyl)-cyclopropane-carboxylic acid [4-(13,13-dioxo-13λ^6-thia-2,4,8,12,19-pentaaza-tricyclo[12.3.1.1^3,7]-nonadeca-1(18),3(19),4,6,14,16-hexaen-6-yl)-phenyl]-amide]
IC50 (Tie2 [1]): < 100 nM
IC50 (Tie2 [2]): < 100 nM

O=C(Nc1ccc(-c2cnc3nc2NCCCNS(=O)(=O)c2cccc(c2)N3)cc1)C1(c2ccccc2F)CC1 [Example 7, 1-(2-Fluoro-phenyl)-cyclopropane-carboxylic acid [4-(13,13-dioxo-13λ^6-thia-2,4,8,12,19-pentaaza-tricyclo[12.3.1.1^3,7]nonadeca-1(18),3(19),4,6,14,16-hexaen-6-yl)-phenyl]-amide]
IC50 (Tie2 [1]): < 100 nM
IC50 (Tie2 [2]): < 100 nM

O=C(Nc1ccc(-c2cnc3nc2NCCCNS(=O)(=O)c2cccc(c2)N3)cc1)C1(c2cccc(F)c2)CC1 [Example 8, 1-(3-Fluoro-phenyl)-cyclopropane-carboxylic acid [4-(13,13-dioxo-13λ^6-thia-2,4,8,12,19-pentaaza-tricyclo[12.3.1.1^3,7]nonadeca-1(18),3(19),4,6,14,16-hexaen-6-yl)-phenyl]-amide]
IC50 (Tie2 [1]): < 100 nM
IC50 (Tie2 [2]): < 100 nM

O=C(Nc1ccc(-c2cnc3nc2NCCCNS(=O)(=O)c2cccc(c2)N3)cc1)C1(c2ccc(F)cc2)CC1 [Example 9, 1-(4-Fluoro-phenyl)-cyclopropane-carboxylic acid [4-(13,13-dioxo-13λ^6-thia-2,4,8,12,19-pentaaza-tricyclo[12.3.1.1^3.7]nonadeca-1(18),3(19),4,6,14,16-hexaen-6-yl)-phenyl]-amide]
IC50 (Tie2 [1]): < 100 nM
IC50 (Tie2 [2]): < 100 nM

O=C(Nc1ccc(-c2cnc3nc2NCCCNS(=O)(=O)c2cccc(c2)N3)cc1)C1(c2cccc(C(F)(F)F)c2)CC1 [Example 10, 1-(3-Trifluoromethyl-phenyl)-cyclopropane-carboxylic acid [4-(13,13-dioxo-13λ^6-thia-2,4,8,12,19-pentaaza-tricyclo[12.3.1.1^3,7]nonadeca-1(18),3(19),4,6,14,16-hexaen-6-yl)-phenyl]-amide]
IC50 (Tie2 [1]): < 100 nM
IC50 (Tie2 [2]): 100 to 1000 nM

O=C(Nc1ccc(-c2cnc3nc2NCCCNS(=O)(=O)c2cccc(c2)N3)cc1)C1(c2ccc(C(F)(F)F)cc2)CC1 [Example 11, 1-(4-Trifluoromethyl-phenyl)-cyclopropane-carboxylic acid [4-(13,13-dioxo-13λ^6-thia-2,4,8,12,19-pentaaza-tricyclo[12.3.1.1^3,7]nonadeca-1(18),3(19),4,6,14,16-hexaen-6-yl)-phenyl]-amide]
IC50 (Tie2 [1]): < 100 nM
IC50 (Tie2 [2]): < 100 nM

O=C(Nc1ccc(-c2cnc3nc2NCCCNS(=O)(=O)c2cccc(c2)N3)cc1)C1(c2cc(C(F)(F)F)ccc2F)CC1 [Example 12, 1-(2-Fluoro-5-trifluoromethyl-phenyl)-cyclopropane-carboxylic acid [4-(13,13-dioxo-13λ^6-thia-2,4,8,12,19-pentaaza-tricyclo[12.3.1.1^3,7]-nonadeca-1(18),3(19),4,6,14,16-hexaen-6-yl)-phenyl]-amide]
IC50 (Tie2 [1]): < 100 nM
IC50 (Tie2 [2]): < 100 nM

CC(C)(C(=O)Nc1ccc(-c2cnc3nc2NCCCNS(=O)(=O)c2cccc(c2)N3)cc1)c1ccc(Cl)cc1 [Example 13, 2-(4-Chloro-phenyl)-N-[4-(13,13-dioxo-13λ^6-thia-2,4,8,12,19-pentaaza-tricyclo[12.3.1.1^3,7]-nonadeca-1(18),3(19),4,6,14,16-hexaen-6-yl)-phenyl]-isobutyramide]
IC50 (Tie2 [1]): 100 to 1000 nM
IC50 (Tie2 [2]): < 100 nM
